# Entries after “also recorded” stand apart in the source; their conditions may differ.
# Tests used:
# [1] = test system: H1N1 A/New Caledonia/20/99; format: cell-based, influenza A virus
# H3N2 A/Moscow/10/99 = format: cell-based, influenza A virus
# [2] = test system: H7N1 A/Chicken/Italy/2076/99; format: cell-based, influenza A virus
# [3] = test system: pandemic H1N1 virus (A/California/07/2009); format: cell-based, influenza A virus
# in vitro = conditions: human
# H5N1 A/Turkey/582/2006 = format: cell-based, influenza A virus
# [4] = test system: H5N2 A/Finch/England/2051/94; format: cell-based, influenza A virus
# influenza A viruses = assay: Selectivity index summary (ratio between CC50 and EC50) on the viruses; format: cell-based, influenza A virus; conditions: summary over the viruses tested (FIG. 4)
SMILES,inhibition of the infectious cycle of low-MOI H1N1 virus [1],inhibition of the infectious cycle of H3N2 virus (H3N2 A/Moscow/10/99),inhibition of the infectious cycle of low-MOI H7N1 virus [2],antiviral activity on pandemic H1N1 virus [3],CC50 (in vitro),inhibition of the infectious cycle of H5N1 virus (H5N1 A/Turkey/582/2006),inhibition of the infectious cycle of H5N2 virus [4],inhibition of the infectious cycle of low-MOI pandemic H1N1 virus [3],inhibition of the infectious cycle of H1N1 virus [1],inhibitor class by selectivity index (SI = CC50/EC50) (influenza A viruses)
"CCN[C@H]1CN(CCCOC)S(=O)(=O)c2sc(S(N)(=O)=O)cc21 [brinzolamide, (R)-(+)-4-Ethylamino-2-(3-methoxypropyl)-3,4-dihydro-2H-thieno[3,2-e]-1,2-thiazine-6-sulfonamide-1,1-dioxide]",inhibits primarily the infectious cycle,inhibits primarily the infectious cycle,inhibits primarily the infectious cycle,do not seem to have an impact,≥ 666 µM,–,–,–,–,–
"Cc1nccc2c1[nH]c1cc(O)ccc12 [harmol, 1-Methyl-9H-beta-carbolin-7-ol]",–,inhibits the infectious cycle,–,characterized by antiviral activity,95 µM,inhibits the infectious cycle,inhibits the infectious cycle,inhibits the infectious cycle,–,–
"COc1ccc(OC)c(C(O)CNC(=O)CN)c1.Cl (racemic) [midodrine, Acetamide, 2-amino-N-[2-(2,5-dimethoxyphenyl)-2-hydroxyethyl]-monohydrochloride, (±)-]",–,inhibits the infectious cycle of all the viruses tested,–,characterized by antiviral activity; also recorded: inhibits the infectious cycle of all the viruses tested,–,inhibits the infectious cycle of all the viruses tested,inhibits the infectious cycle of all the viruses tested,–,inhibits the infectious cycle of all the viruses tested,moderate (a moderate inhibitor has an SI between 10 and 50)
C1COC(NC(C2CC2)C2CC2)=N1 [rilmenidine],–,inhibits the infectious cycle,–,do not seem to have an impact,1120 µM,–,inhibits the infectious cycle,–,inhibits the infectious cycle,–
